{
  "source": "paper PMC7070709",
  "about": "“Design, Synthesis, and In Vitro Evaluation of Hydroxybenzimidazole-Donepezil Analogues as Multitarget-Directed Ligands for the Treatment of Alzheimer’s Disease” (Molecules, 2020)",
  "key": {"[1]": {"conditions": "pH 7.4, CL/CM = 10, CM = 10^−6 M; cited from earlier work"}, "Aβ1–42 with Cu(II) [2]": {"target": "T1, Aβ1–42 with Cu(II) (Homo sapiens, UniProt P05067)", "T1 sequence (P05067 672-713)": "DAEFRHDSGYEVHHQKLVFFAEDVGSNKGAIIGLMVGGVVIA", "test": "Inhibition of Cu-induced Aβ1–42 aggregation (thioflavin T fluorescence)", "format": "biochemical", "procedure": "The anti-amyloidogenic capacity of the compounds was also evaluated in vitro, in the absence and presence of Cu(II), based on the measurement of the fluorescence emission of Thioflavin T (ThT), a stain known by its Aβ fibril binding capacity. This binding interaction can be analyzed by fluorimetry, since the presence of ThT-fibrils increases the absorbance and the emission of the ThT dye, and it also induces red shifts on the absorbance (from 385 to 446 nm) and emission peaks (from 445 to 485 nm). All the measurements were performed after incubation (24 h, 37 °C) of the self-mediated and Cu^2+-induced Aβ aggregates in the presence/absence of the compounds under evaluation.\nHerein, due to solubility problems of some compounds in the phosphate buffer (0.215 M, pH 8.0) of the working medium, the assays were carried out in the presence of 40 μM concentration of inhibitor and 20 μM in the case of compound 4, instead of 80 μM as previously reported. […] The activity dependence on ligand structural features may be mainly explained by the different ability for intercalation into the fibrils, as already assumed for other inhibitors. […] The data obtained for compounds 6 and 7 indicate that the presence of R1 = F, -NO2 substituents in the BIM have some small positive effect on the inhibition of Aβ aggregation.\nThe Aβ peptide was treated with 1,1,1,3,3,3-hexafluoropropan-2-ol (HFIP) and dissolved in a CH3CN/Na2CO3 (300 μM)/NaOH (250 μM) (48.3:48.3:4.3, v/v/v) mixture in order to have a stable stock solution, avoiding self-aggregation of Aβ1–42. Then, the prepared 500 μM solution was diluted at 40 μM in phosphate buffer (0.215 M, pH 8.0).\nThe solutions of the tested compounds were prepared in MeOH (1 mg/mL), being further diluted in phosphate buffer to a concentration of 480 μM. For copper-induced aggregation studies, a solution of CuCl2 240 μM was prepared from a stock standard solution (0.015 M). To perform the assays for the Aβ1–42 aggregation inhibition, a reported method, based on the fluorescence emission of thioflavin T (ThT), was followed. Aβ1–42 (40 μM) was incubated at 37 °C, for 24 h with or without Cu(II) (40 μM) in a phosphate buffer in presence or absence of the single ligand (40 μM and 20 μM for compound 4). Then, the samples were added to a 96-well plate with […] of 5 μM ThT in 50 mM glycine-NaOH (pH 8.5) buffer. Blank samples were prepared without the peptide for each concentration. The ThT fluorescence was measured at 446 nm (excitation) and 485 nm (emission). The inhibition percentage of aggregation was calculated by Equation (2), in which IFi and IF0 corresponded to the fluorescence intensities, in the presence and in the absence of the tested compound, subtracted of the fluorescence intensities due to the respective blanks.\nThe reported values were obtained as the mean ± SEM of duplicate of three different experiments."}, "Aβ1–42": {"target": "T2, Aβ1–42 (Homo sapiens, UniProt P05067)", "T2 construct": "Aβ1–42 (40 μM) was incubated at 37 °C, for 24 h with or without Cu(II) (40 μM)", "T2 sequence (P05067 672-713)": "as above", "set-up": "method as in PMID 32171933", "conditions": "footnote e; cited from earlier work"}, "Aβ1–42 with Cu(II) [3]": {"target": "T1, Aβ1–42 with Cu(II)", "set-up": "method as in PMID 32171933", "conditions": "copper 40 µM; footnote e; cited from earlier work"}, "[4]": {"conditions": "pH 7.4, CL/CM = 10, CM = 10^−6 M; cited from earlier work", "remark": "listed apart in the source"}, "[5]": {"conditions": "50% w/w DMSO/water, I = 0.1 M KCl, 25.0 °C; cited from earlier work"}, "[6]": {"target": "T3, AChE (type VI-S, from electric eel) (Electrophorus electricus, UniProt O42275)", "T3 construct": "purchased type VI-S", "T3 sequence (O42275 24-633)": "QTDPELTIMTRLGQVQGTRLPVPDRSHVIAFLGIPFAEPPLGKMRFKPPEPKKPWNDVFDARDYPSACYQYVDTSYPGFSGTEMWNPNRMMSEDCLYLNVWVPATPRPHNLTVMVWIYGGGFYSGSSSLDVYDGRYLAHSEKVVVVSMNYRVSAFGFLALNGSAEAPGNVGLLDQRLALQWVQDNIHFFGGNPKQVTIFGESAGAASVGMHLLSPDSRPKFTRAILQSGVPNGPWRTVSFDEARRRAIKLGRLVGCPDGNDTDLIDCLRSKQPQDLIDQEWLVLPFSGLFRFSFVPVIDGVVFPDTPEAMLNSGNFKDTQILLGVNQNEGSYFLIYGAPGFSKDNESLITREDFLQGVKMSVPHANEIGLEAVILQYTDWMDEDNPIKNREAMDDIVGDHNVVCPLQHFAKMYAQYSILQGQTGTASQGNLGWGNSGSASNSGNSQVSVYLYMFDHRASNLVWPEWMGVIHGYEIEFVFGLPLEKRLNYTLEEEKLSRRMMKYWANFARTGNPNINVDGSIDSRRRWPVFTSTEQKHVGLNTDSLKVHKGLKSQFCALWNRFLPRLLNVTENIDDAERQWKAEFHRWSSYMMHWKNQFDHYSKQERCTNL", "conditions": "read-out: TcAChE Inhibition IC50; cited from earlier work"}, "[7]": {"test": "Cu(II) chelation by potentiometry", "format": "physicochemical", "conditions": "pH 7.4; read-out: conditional dissociation constant (K´d) for the copper complex", "source_text": "The metal chelating ability of hybrids 7 and 12, due to the BIM bidentate unity with (N,O) coordination mode, was studied by potentiometry. Figure 3A,B show a change in the deprotonation profile of the ligand titration curves due to the presence of the metal ions. In fact, the curves for the Cu(II)/L systems lie well below that of the ligand, while for the Zn(II)/L systems stay under for a > −1 (compound 7) or a > 0 (compound 12), thus supporting the formation of 1:1 and 1:2 M/L ratio complexes with the deprotonated and mono-protonated forms of the ligand and with relative metal dependent stability order (Cu > Zn). Table 1 contains the equilibrium models obtained from the fitting analysis of the potentiometric curves by program Hyperquad. In these equilibrium models, which the coordination core of the compounds integrates the bidentate (N,O) BIM moiety, MHL and MH2L2 correspond to species with the ligand containing one protonated nitrogen atom at the piperazine moiety, ML and ML2 correspond to complexes involving the completely deprotonated form of the ligand while MH-1L2 are mixed ligand-hydroxo metal complexes.\nSolutions: the aqueous copper (CuCl2, 0.015 M) and zinc (ZnCl2, 0.0156 M) stock solutions for potentiometric equilibrium studies were prepared from 1000 ppm standards (Titrisol) and their metal content was evaluated by atomic absorption. The titrant solution (0.1 M KOH) was obtained from a carbonate-free commercial concentrate (Titrisol) and standardized by potentiometric titration with potassium hydrogen phthalate. The titrant solution was discarded whenever the percentage of carbonate (Gran’s method) was about 0.5% of the total amount of base.\nMeasurements: compounds 7 and 12 were titrated in 50% (w/w) DMSO/H2O medium, at T = 25.0 ± 0.1 °C and ionic strength (I) 0.1 M KCl, using 0.1 M KOH as titrant. Both glass and Ag/AgCl reference electrodes were previously conditioned in DMSO/H2O mixtures with increasing amounts of DMSO and the response of the glass electrode was controlled by strong acid–strong base (HCl/KOH) calibrations with the determination of the Nernst parameters by Gran’s method. […] All titrations were performed in duplicate and under the stated experimental conditions the pKw value (13.6) was determined and subsequently used in the computations. The stepwise protonation constant of the ligand, Ki = [HiL]/([Hi–1L][H]), and the overall metal–complex stability constants, βMmHhLl = [MmHhLl]/([M]^m[H]^h[L]^l), were calculated by fitting the potentiometric titration data with Hyperquad 2008 [26]. The metal hydrolysis constants were determined under the defined experimental conditions (I = 0.1 M KCl, 50% w/w DMSO/H2O, T = 25.0 ± 0.1 °C) and the following values of stability constants were included in the fitting of experimental data towards the equilibrium models related to the Cu^2+/L and Zn^2+/L systems: log βCu2H−2 = −9.99; log βZnH−2 = −14.79, log βZnH−3 = −23.48. Species distribution curves were plotted with the Hyss program."}},
  "data": [
    {"smiles": "O=C(NCC1CCN(Cc2ccccc2)CC1)c1cccc2[nH]c(-c3ccccc3O)nc12", "note": "[Compound 5]", "values": [
      {"measurement": "pCu (pM = −log[M])", "setting": "[1]", "value": 14.3},
      {"measurement": "increase on Cu-induced Aβ aggregation (inhibition) relative to the self-induced one", "setting": "Aβ1–42 with Cu(II) [2]", "value": "more than 50%"},
      {"measurement": "Aβ1–42 Aggregation Inhibition, Self-Induced", "setting": "Aβ1–42", "value": "38.6 ^e %"},
      {"measurement": "Aβ1–42 Aggregation Inhibition, Cu-Induced", "setting": "Aβ1–42 with Cu(II) [3]", "value": "58.9 ^e %"},
      {"measurement": "pZn (pM = −log[M])", "setting": "[4]", "value": 6.4},
      {"measurement": "log K1, stepwise protonation constant (011)", "setting": "[5]", "value": "8.98(2)"},
      {"measurement": "log K2, stepwise protonation constant (021)", "setting": "[5]", "value": "7.78(4)"},
      {"measurement": "log K3, stepwise protonation constant (031)", "setting": "[5]", "value": "2.86(5)"},
      {"measurement": "IC50", "setting": "[6]", "value": "9 ± 1", "unit": "µM"},
      {"measurement": "Kd", "setting": "[7]", "value": 0.000254, "unit": "µM"}
    ]}
  ]
}
